Converted amounts (≈) assume the structure as drawn. Where two headings read alike, the source gives them in different places.
Key:
Assay type in all cases: in vivo
[1] = system: smaller brown planthoppers (Lacdelphax striatellus); assay: Lethal effect on smaller brown planthoppers (Test Example 1)
Protocol: Lethal effect on smaller brown planthoppers (Lacdelphax striatellus)
Rice plants (15 to 20 cm tall) 15 days after germination, are dipped for 1 minute into each aqueous dilute solution of the present compounds in the form of emulsifiable concentrates, and placed in large glass tubes separately after air-drying. Thereafter, 20 to 30 adult planthoppers are released therein and covered with a wire net. After 24 hours, the number of dead and live planthoppers are observed to calculate LC50. The number of the compounds in Table 1 correspond to those of the compounds mentioned above.

[2] = system: green rice leafhoppers (Nephotettix cincpiceps); assay: Effect on green rice leafhoppers in soil treatment (Test Example 4); details: 6 % granules, 6 kg./10 ares soil treatment; released after 3 days, observed after 24 hours
Protocol: Effect on green rice leafhoppers (Nephotettix cincpiceps) in soil treatment.
(§1) Each of 6 % granules of the present compounds is applied in a ratio of 6 kg./10 ares near the root of rice plants grown into the tillering stage in a 1/100,000 Wagner's pot. After 3 days, 30 adult leafhoppers are released and covered with a wire cage. After 24 hours, the number of dead and live leafhoppers are observed to calculate the mortality rate.

[3] = system: nematode; assay: Effect on nematode (Test Example 6); details: 500 ppm active ingredient; after 24 hours
Protocol: 0.5 ml. of a nematode-containing aqueous solution separated from food is placed in a test tube with ground stopper containing 0.5 ml. of an aqueous dilute solution of each emulsifiable concentrate of the present compounds. The concentration of the active ingredient in the mixture is adjusted to 500 ppm. After 24 hours, the number of dead and live nematodes are observed microscopically to calculate the mortality rate.

[4] = system: smaller brown planthoppers (Loadelphax striatellus); assay: Residual effect on smaller brown planthoppers (Test Example 11); details: 1000 fold dilute solution of 50 % emulsifiable concentrate; for Mortality after 4 days: after 4 days (residual effect); for Mortality after 7 days: after 7 days (residual effect)
Protocol: Residual effect on smaller brown planthoppers (Loadelphax striatellus).
From 18 to 23 rice plants are grown into a 3 - 4 leaves stage in each flower pot of 10 cm. in diameter, then a 1000 fold aqueos dilute solution of each 50 % emulsifiable concentrate of the present componds is applied thereto. After air-drying, each pot is covered with a wire cage, and 20 - 30 adult planthoppers are released therein, and after 24 hours the mortality rate is calculated. Furthermore, the planthoppers are released each day to investigate the residual effect of the present compounds.

[5] = system: larvae of northern house mosquito (Culex pipien pallens); assay: Effect on mosquito larvae (Test Example 8)
Protocol: Effect on mosquito larvae.
200 ml. of an aqueous solution of each emulsifiable concentrate of the present compounds which is adjusted to the concentration of 1 ppm with pure water are placed in a 300 ml. beaker and 30 larvae of northern house mosquito (Culex pipien pallens) are released therein. the mortality rate is calculated.

[6] = system: green peach aphids (Myzus persicae); assay: Effect on green peach aphids in soil treatment (Test Example 3); details: 5 % granules, 6 kg./10 ares soil treatment; after 3 days; chinese cabbages
From the text: Effect on green peach aphids (Myzus persicae) in soil treatment.
Many of the aphids are made parasitic on chinese cabbages grown in a pot one month after sowing, and each of 5 % granules of the present compounds is applied in a ratio of 6 kg./10 ares near the root thereof. After 3 days, the number of dead and live aphids are observed to calculate the mortality rate.

[7] = system: rice stem borer (Chilo suppressalis); assay: Lethal effect on rice stem borer (Test Example 5); details: 1000 fold dilute solution of 50 % emulsifiable concentrate; 4 days after application
From the text: Lethal effect on rice stem borer (Chilo suppressalis).
Eggs just before hatching of the rice stem borer are applied in a ratio of 100/pot near the root of rice plants grown into the tillering stage in a 1/100,000 Wagner's pot. After the eggs hatched and the larvae enter into stems of rice plants, a 1000 fold dilute solution of each 50 % emulsifiable concentrate of the present compounds is applied by means of a turn table. The number of dead and live stem borers are observed to calculate the mortality rate 4 days after application.

[8] = system: tobacco cut worm (Spodoptera litura); assay: Effect on tobacco cut worm (Test Example 7); details: 1000 fold dilute solution of emulsifiable concentrate, fourth instar larvae
Protocol: Effect on tobacco cut worm (Spodoptera litura).
A 1000 fold dilute solution of each emulsifiable concentrate of the present compounds is applied by means of a turn table to a potted chinese cabbage 60 days after sowing. After air-drying, fourth instar larvae of the tobacco cut worm are released and the mortality rate after 24 hours and 48 hours is calculated.

[9] = system: smaller brown planthoppers (Laodelphax striatellus); assay: Effect on smaller brown planthoppers in soil treatment (Test Example 2); details: 6 % granules, 6 kg./10 ares soil treatment; released after 3 days, observed after 24 hours
Protocol: Effect on smaller brown planthoppers (Laodelphax striatellus) in soil treatment.
as §1, with “stage” for “stage in”, “planthoppers” for “leafhoppers”

[10] = system: carmine mite (Tetranychus telarius); assay: Acaricidal activity on carmine mite (Test Example 10); details: 1000 fold dilute solution of 40 % wettable powder, 10 ml./pot, after 10 days
Protocol: Acaricidal activity on carmine mite (Tetranychus telarius).
From 10 to 15 female carmine mites are made parasitic, in a ratio of 10 - 15/leaf, on leaves of potted kidney beans is (a leaves stage), 9 days after sowing, and kept at 27°C. For a week in a constant temperature room, then breeding of numerous carmine mites at various growth stages can be observed. At this time, a 1000 fold aqueous dilute solution of each 40 % wettable powder of the present compounds is sprayed by means of a turn table in a ratio of 10 ml./pot. After 10 days, the degree of damage of kidney beans and the degree of breeding of mites are observed and classified into five grades (-, +, […] , +++, ++++ ).
The degree of damage of kidney bean leaves:
-; damage is hardly observed, […]
and the degree of damage in between the two extremes is classified into three grades.
The degree of breeding of carmine mites: -; the number alive is less than 10, ++++; the alive are numerous, and the degree of breeding in between the two extremes is classified into three grades.

| SMILES | LC50 ([1]; 24 h) [µg/mL] | Mortality [2] [%] | Mortality [3] [%] | Mortality after 1 day [4] [%] | Mortality after 4 days [4] [%] | Mortality after 7 days [4] [%] | also measured |
| --- | --- | --- | --- | --- | --- | --- | --- |
| CN(C(=O)Oc1ccc(Cl)cc1)[S+]([O-])c1ccccc1 (stereo not drawn) [Compound 2] | 20 (≈ 64.6 µM) | 75.0 | 79.8 | 96.7 | 75.0 | 20.0 | – |
| Cc1cccc(OC(=O)N(C)[S+]([O-])c2ccccc2)c1C (stereo not drawn) [Compound 3] | 70 (≈ 231 µM) | – | – | 100 | 64.0 | 50.0 | – |
| Cc1ccc(OC(=O)N(C)[S+]([O-])c2ccccc2)c(C)c1 (stereo not drawn) [Compound 4] | 33 (≈ 109 µM) | – | – | 100 | 83.3 | 53.3 | – |
| Cc1cc(C)cc(OC(=O)N(C)[S+]([O-])c2ccccc2)c1 (stereo not drawn) [Compound 5] | 18 (≈ 59.3 µM) | 68.0 | – | 100 | 100 | 45.0 | – |
| Cc1ccc(OC(=O)N(C)[S+]([O-])c2ccccc2)cc1C (stereo not drawn) [Compound 6] | 25 (≈ 82.4 µM) | – | 100 | 90.0 | 63.3 | 50.0 | mortality at 1 ppm [5]: 70% |
| Cc1cccc(OC(=O)N(C)[S+]([O-])c2ccccc2)c1 (stereo not drawn) [Compound 7] | 43 (≈ 149 µM) | 96.7 | – | 86.7 | 65.0 | 46.7 | – |
| Cc1ccc([S+]([O-])N(C)C(=O)Oc2ccc(C)c(C)c2)cc1 (stereo not drawn) [Compound 8] | 50 (≈ 158 µM) | – | – | 85.0 | 50.0 | 42.0 | mortality at 1 ppm [5]: 100% |
| Cc1ccc([S+]([O-])N(C)C(=O)Oc2cccc(C)c2C)cc1 (stereo not drawn) [Compound 9] | 29 (≈ 91.4 µM) | 83.3 | – | 100 | 62.3 | 30.0 | mortality at 1 ppm [5]: 66.7% |
| Cc1ccc(OC(=O)N(C)[S+]([O-])c2ccc([N+](=O)[O-])cc2)cc1C (stereo not drawn) [Compound 10] | 33 (≈ 94.7 µM) | 72.2 | – | 100 | 50.0 | 23.3 | – |
| Cc1ccc(OC(=O)N(C)[S+]([O-])c2ccc(Cl)cc2)cc1C (stereo not drawn) [Compound 11] | 40 (≈ 118 µM) | – | 75.0 | 100 | 85.0 | 75.0 | mortality at 1 ppm [5]: 100% |
| CCC[S+]([O-])N(C)C(=O)ON=C(C)SC (stereo not drawn) [Compound 13] | – | – | 100 | – | – | – | Mortality [6]: 96.7%; Mortality [7]: 83.2%; Mortality After 24 hrs. [8]: 100%; Mortality After 48 hrs. [8]: 100% |
| CCCCCCCCCCCC[S+]([O-])N(C)C(=O)ON=C(C)SC (stereo not drawn) [Compound 14] | – | – | 100 | – | – | – | Mortality [9]: 90.0%; Mortality [6]: 76.5%; Mortality After 24 hrs. [8]: 90%; Mortality After 48 hrs. [8]: 100% |
| CSC(C)=NOC(=O)N(C)[S+]([O-])c1ccccc1 (stereo not drawn) [Compound 15] | – | 70.0 | 100 | – | – | – | LC50 ([1]; rice plants dipped 1 minute in dilute emulsifiable concentrate, after 24 hours, read-out: LC50): 123 µg/mL (≈ 430 µM); Mortality [6]: 95.9%; Mortality [7]: 82.3%; mortality at 1 ppm ([5]; 1 ppm aqueous solution of emulsifiable concentrate, 30 larvae, time not stated, read-out: Mortality): 78.3%; Degree of breeding ([10]; carmine mites): - (the number alive is less than 10); Degree of damage ([10]; kidney bean leaves): -~+ |
| CCC(=NOC(=O)N(C)[S+]([O-])c1ccccc1)SC (stereo not drawn) [Compound 19] | – | – | – | – | – | – | Mortality [7]: 66.7% |
| CCCSC(C)=NOC(=O)N(C)[S+]([O-])c1ccc(Cl)cc1 (stereo not drawn) [Compound 21] | – | – | 65.0 | – | – | – | – |
| CNC(=O)Oc1ccc(C)c(C)c1 [Meobal, 3,4-dimethylphenyl-N-methylcarbamate, reference compound] | – | – | – | 100 | 53.2 | 10.0 | – |

Reference: patent US3950374A, “Carbamate pesticide” (priority 1972, dated 1976)
